Data from ChEMBL document CHEMBL1201862, “PubChem BioAssay data set” (2004).
Activity calls are given as the source filed them.

Experiments:
[1] = target: T1, Adenosylmethionine-8-amino-7-oxononanoate aminotransferase (Mycobacterium tuberculosis, UniProt P9WQ81); assay: Mycobacterium tuberculosis BioA enzyme inhibitor Measured in Biochemical System Using Plate Reader - 2163-02_Inhibitor_Dose_CherryPick_Activity.; assay type: functional, Mycobacterium tuberculosis UT205
T1 sequence (P9WQ81 whole entry): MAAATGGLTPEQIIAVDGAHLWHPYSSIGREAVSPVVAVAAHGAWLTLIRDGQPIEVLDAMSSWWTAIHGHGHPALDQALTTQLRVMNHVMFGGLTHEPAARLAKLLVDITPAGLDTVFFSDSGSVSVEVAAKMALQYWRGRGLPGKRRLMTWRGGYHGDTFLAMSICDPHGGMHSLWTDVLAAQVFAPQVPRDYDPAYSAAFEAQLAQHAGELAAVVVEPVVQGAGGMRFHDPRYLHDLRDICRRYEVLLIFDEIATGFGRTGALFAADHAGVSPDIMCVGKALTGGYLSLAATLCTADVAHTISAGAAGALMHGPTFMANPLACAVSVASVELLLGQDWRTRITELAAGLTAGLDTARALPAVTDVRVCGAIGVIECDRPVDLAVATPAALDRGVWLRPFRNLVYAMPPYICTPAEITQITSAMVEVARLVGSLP

Cytochrome P450 1A2 = target: T2, Cytochrome P450 1A2 (Homo sapiens, UniProt P05177);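 also: PubChem cytochrome P450 panel assay, CYP1A2 panel member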
T2 sequence (P05177 whole entry): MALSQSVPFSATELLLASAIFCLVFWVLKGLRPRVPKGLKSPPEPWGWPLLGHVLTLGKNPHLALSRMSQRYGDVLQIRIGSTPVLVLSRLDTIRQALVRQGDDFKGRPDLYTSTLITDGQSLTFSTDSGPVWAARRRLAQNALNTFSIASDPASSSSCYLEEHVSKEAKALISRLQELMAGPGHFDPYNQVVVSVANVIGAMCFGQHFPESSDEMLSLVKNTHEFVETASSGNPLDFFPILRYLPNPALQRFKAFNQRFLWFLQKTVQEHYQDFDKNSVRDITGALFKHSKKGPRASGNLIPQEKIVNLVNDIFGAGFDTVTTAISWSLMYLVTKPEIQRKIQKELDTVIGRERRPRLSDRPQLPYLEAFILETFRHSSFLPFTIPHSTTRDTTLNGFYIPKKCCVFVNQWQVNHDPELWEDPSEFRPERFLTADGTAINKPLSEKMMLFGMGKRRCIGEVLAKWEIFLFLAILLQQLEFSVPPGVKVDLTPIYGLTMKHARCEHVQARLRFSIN

Genome polyprotein = Genome polyprotein (dengue virus type 2, UniProt P29990); assay: flavivirus cap methylation enzyme inhibition – biochemical, confirmation dose response, primary screen (AID 588689); assay type: functional
Genome polyprotein, sequence (P29990 2492-3391 limits assumed): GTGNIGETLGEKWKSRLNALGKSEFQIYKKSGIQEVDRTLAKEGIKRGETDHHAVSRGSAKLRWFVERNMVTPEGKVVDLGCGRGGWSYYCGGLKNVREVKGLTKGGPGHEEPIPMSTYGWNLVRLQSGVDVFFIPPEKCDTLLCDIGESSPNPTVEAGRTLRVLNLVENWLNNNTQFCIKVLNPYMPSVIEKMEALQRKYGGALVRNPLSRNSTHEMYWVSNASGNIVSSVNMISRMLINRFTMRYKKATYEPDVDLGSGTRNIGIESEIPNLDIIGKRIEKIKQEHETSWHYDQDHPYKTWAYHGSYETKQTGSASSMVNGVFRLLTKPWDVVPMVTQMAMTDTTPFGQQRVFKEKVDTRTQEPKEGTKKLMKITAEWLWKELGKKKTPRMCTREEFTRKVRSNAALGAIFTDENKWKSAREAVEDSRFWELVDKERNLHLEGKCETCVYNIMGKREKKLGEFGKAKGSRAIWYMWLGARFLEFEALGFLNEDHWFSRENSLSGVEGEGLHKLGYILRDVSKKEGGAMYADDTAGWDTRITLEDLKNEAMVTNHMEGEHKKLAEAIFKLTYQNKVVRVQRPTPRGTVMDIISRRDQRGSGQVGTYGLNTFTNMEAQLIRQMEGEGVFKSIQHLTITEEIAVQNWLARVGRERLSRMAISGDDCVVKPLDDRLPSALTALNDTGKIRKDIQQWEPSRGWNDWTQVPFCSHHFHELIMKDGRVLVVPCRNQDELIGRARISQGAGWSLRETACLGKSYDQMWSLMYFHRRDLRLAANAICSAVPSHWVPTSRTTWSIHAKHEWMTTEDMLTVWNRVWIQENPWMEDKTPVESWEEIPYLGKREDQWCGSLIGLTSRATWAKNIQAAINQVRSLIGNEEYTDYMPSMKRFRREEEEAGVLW

[2] = target: T3, Long-chain-fatty-acid--AMP ligase FadD28 (Mycobacterium tuberculosis, UniProt P9WQ59); assay: Fluorescence polarization aasay to screen for inhibitors that compete for the binding of FadD28 to a bisubstrate Measured in Biochemical System Using Plate Reader - 2147-01_Inhibitor_Dose_CherryPick_Activity.; assay type: functional, Mycobacterium tuberculosis H37Rv
T3 sequence (P9WQ59 whole entry): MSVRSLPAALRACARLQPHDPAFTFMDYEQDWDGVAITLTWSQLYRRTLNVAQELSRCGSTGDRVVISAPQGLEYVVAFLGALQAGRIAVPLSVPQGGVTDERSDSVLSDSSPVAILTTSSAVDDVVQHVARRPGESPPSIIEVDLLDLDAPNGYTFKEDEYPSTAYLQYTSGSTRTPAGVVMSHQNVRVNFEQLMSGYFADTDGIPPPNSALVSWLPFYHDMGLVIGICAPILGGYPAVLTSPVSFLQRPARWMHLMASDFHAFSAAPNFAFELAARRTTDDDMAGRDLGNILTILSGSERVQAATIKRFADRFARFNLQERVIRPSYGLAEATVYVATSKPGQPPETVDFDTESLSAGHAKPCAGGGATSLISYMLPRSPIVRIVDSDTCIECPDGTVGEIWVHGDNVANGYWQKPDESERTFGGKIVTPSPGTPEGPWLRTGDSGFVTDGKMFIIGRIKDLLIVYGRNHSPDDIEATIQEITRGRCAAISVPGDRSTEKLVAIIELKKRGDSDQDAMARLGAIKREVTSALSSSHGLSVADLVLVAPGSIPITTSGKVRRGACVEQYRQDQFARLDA

Large T antigen = Large T antigen (Simian virus 40, UniProt P03070); assay type: functional, Betapolyomavirus macacae;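 also: Confirmatory-stage PubChem screen for compounds that inhibit SV40 T antigen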
Large T antigen, sequence (P03070 whole entry): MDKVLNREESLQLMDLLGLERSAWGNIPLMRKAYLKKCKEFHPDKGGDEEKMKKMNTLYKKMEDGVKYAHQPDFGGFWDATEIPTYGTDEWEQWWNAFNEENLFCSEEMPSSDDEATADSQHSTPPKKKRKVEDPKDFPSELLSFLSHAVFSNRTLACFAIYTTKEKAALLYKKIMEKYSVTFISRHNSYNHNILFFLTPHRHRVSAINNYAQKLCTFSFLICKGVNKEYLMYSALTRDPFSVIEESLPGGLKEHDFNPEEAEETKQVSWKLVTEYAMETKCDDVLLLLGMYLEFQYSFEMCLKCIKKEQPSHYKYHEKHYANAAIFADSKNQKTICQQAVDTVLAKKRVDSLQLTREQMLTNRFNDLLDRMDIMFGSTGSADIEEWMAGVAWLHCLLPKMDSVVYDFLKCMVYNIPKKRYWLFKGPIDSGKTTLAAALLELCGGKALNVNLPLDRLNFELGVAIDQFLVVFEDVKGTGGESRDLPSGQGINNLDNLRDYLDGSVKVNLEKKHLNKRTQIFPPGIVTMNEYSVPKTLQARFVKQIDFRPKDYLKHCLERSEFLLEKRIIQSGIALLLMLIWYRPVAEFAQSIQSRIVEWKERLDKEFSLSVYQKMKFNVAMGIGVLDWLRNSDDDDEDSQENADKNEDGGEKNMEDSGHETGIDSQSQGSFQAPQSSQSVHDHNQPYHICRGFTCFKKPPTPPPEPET

[3] = target: T4, Low molecular weight phosphotyrosine protein phosphatase (Homo sapiens, UniProt P24666); assay type: functional; settings: read-out: IC50_Mean;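 also: Dose-response confirmation assay measuring inhibition of LMPTP enzyme activity by fluorescence intensity read-out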
T4 sequence (P24666 whole entry): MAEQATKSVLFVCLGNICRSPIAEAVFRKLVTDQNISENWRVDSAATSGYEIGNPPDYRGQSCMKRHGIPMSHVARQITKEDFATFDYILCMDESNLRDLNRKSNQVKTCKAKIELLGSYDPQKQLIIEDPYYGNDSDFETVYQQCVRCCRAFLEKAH

Aminopeptidase N = target: T5, Aminopeptidase N (Plasmodium falciparum FcB1/Columbia, UniProt O96935); assay: malaria alanyl aminopeptidase activity blockers – biochemical, fluorogenic H-Leu-NHMec substrate, 1536-well (AID 1445); parameters: species or system Plasmodium falciparum 3D7, 3D7
T5 sequence (O96935 whole entry): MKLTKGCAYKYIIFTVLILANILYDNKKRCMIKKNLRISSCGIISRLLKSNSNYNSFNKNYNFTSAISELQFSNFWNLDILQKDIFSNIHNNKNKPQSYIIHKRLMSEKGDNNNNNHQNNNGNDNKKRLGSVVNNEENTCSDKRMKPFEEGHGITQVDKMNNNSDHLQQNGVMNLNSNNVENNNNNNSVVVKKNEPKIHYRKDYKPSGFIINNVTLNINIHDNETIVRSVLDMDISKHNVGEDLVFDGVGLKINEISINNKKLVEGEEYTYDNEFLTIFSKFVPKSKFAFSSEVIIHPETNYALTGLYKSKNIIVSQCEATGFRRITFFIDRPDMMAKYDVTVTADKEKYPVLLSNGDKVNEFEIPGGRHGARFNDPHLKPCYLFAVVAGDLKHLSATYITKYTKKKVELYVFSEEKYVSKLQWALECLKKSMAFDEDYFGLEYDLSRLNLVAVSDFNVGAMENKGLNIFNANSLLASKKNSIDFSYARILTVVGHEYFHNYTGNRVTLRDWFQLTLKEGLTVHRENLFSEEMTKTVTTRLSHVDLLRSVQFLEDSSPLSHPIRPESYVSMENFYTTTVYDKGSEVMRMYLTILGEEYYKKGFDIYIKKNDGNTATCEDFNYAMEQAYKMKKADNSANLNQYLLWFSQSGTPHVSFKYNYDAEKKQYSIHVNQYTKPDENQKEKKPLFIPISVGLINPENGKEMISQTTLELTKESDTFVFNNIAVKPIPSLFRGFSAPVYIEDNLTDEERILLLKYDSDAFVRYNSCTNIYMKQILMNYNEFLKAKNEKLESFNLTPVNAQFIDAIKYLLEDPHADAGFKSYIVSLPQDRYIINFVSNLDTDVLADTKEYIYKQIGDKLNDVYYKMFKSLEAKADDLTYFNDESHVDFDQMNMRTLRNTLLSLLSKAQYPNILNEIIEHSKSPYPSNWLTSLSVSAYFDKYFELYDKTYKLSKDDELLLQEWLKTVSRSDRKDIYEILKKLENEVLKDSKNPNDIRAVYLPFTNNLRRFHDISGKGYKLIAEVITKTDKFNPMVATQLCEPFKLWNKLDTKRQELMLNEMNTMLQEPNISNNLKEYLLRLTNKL

[4] = test system: Streptococcus sp. 'group A'; assay: Streptococcus pyogenes SK(-)GAS viability under kanamycin – luminescence, BacTiterGlo, confirmation, counter-screen for streptokinase expression inhibitor project, dose response (AID 1900); assay type: functional, organism-based
Streptokinase A = target: T6, Streptokinase A (Streptococcus pyogenes serotype M1, UniProt P10520); assay: viability-normalized secreted streptokinase activity reduction – plasminogen activation absorbance, OD405, dose response (AID 1914); assay type: functional, Streptococcus pyogenes M1 GAS;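 also: secreted streptokinase activity via plasminogen activation per viability signal from cell pellet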
T6 sequence (P10520 whole entry): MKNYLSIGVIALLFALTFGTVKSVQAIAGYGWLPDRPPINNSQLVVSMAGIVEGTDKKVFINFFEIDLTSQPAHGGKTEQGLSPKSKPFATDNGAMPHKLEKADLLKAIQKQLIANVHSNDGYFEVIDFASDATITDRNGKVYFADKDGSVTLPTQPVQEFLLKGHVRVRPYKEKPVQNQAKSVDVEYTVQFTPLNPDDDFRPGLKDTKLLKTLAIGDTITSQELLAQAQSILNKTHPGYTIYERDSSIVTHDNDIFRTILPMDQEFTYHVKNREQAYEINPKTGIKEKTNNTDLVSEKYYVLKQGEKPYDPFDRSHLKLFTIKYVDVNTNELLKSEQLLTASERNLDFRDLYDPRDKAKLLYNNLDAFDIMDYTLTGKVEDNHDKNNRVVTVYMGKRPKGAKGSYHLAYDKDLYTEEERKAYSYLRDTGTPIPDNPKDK

Streptococcus = assay: GAS UMAA2166 growth inhibition – luminescence, BacTiterGlo, counter-screen for streptokinase expression inhibitor project, dose response (AID 1915); assay type: functional, organism-based;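 also: potency for reduction of bacterial viability or growth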
[5] = target: T7, Short transient receptor potential channel 4 (Mus musculus, UniProt Q9QUQ5); assay: block of DAMGO-driven TRPC4 calcium entry – cell-based, HEK293 TRPC4/mu-opioid, Fluo-4 calcium, dose response (AID 434942); assay type: functional;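 also: potency of inhibitors blocking the TRPC4 calcium response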
T7 sequence (Q9QUQ5 whole entry): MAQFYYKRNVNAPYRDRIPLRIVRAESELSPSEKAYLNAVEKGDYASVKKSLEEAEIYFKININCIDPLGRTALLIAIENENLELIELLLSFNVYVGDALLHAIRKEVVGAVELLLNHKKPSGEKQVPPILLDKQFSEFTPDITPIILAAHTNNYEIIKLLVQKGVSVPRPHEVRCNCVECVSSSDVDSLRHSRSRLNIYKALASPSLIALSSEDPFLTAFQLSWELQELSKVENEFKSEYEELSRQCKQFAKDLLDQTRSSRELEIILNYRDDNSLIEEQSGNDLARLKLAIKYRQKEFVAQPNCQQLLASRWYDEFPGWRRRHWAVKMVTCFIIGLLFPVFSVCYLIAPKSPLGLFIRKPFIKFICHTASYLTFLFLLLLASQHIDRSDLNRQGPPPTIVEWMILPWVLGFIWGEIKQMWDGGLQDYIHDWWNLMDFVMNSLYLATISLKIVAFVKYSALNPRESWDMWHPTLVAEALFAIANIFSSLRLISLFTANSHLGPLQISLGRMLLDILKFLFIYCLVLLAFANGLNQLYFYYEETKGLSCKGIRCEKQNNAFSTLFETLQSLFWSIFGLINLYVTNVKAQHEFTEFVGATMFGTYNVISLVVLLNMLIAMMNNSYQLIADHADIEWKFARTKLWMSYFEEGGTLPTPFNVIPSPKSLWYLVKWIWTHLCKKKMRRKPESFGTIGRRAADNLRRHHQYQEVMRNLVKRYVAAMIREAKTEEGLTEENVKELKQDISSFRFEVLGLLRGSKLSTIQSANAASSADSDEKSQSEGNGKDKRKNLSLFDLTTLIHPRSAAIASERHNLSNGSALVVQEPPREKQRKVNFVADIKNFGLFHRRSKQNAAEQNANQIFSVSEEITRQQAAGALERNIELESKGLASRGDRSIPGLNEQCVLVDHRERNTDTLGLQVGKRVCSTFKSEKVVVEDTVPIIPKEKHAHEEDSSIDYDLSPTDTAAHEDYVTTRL

cells = assay type: functional, cell-based
[6] = target: T8, Nuclear receptor subfamily 0 group B member 1 (Homo sapiens, UniProt P51843); assay type: functional, cell-based;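 also: HEK293T cells transfected with SF-1 and DAX-1 plus StAR promoter luciferase reporter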
T8 sequence (P51843 whole entry): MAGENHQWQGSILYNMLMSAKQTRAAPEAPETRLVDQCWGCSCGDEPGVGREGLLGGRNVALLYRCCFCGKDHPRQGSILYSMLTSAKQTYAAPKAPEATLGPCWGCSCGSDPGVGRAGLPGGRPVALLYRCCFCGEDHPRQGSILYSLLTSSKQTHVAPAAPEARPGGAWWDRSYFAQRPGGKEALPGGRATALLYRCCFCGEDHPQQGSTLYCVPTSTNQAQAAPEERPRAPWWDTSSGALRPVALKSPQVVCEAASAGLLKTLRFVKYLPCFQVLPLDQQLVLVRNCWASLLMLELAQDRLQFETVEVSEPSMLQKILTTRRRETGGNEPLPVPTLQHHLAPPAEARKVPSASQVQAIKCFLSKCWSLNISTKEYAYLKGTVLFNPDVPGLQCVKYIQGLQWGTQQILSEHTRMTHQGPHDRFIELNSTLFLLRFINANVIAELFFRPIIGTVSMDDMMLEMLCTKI

Cc1ccccc1S(=O)(=O)NCC[C@H]1CC[C@@H](NC(=O)Nc2cccc(F)c2)[C@H](CO)O1
AC50 [1]: 11.3 µM (active)

CCCc1c(OCCCOc2ccc(OCC(=O)O)cc2)ccc(C(C)=O)c1O
AC50 [1]: 2.54 µM (active) | AC50 (Cytochrome P450 1A2): 31.6 µM (inconclusive)

Cc1ccc(S(=O)(=O)N2[C@@H](c3cccc(Cl)c3)C(C(=O)O)=CC[C@H]2c2cccc(Cl)c2)cc1
IC50 (Genome polyprotein): 48.3 µM (active) | AC50 [2]: 24.9 µM (active)

O=C(CSc1nc2c(c(=O)n1-c1ccccc1)SCC2)N1CCOCC1
AC50 [1]: 2.62 µM (active)

Nc1ccc2[nH]c(CCCCCCc3nc4cc(N)ccc4[nH]3)nc2c1
IC50 (Large T antigen): 5.49 µM (active) | IC50 [3]: 20.8 µM (inactive)

Sc1nnc(-c2cc3c(s2)-c2ccccc2CC3)o1
IC50 (Aminopeptidase N): 67.4 µM (active) | EC50 [4]: 11.5 µM (active) | EC50 (Streptokinase A): > 150 µM (not active) | EC50 (Streptococcus): 23.3 µM (inconclusive) | EC50 [5]: 0.944 µM (active) | AC50 [2]: 24.9 µM (active)

CN1c2ccc(-c3cccc(C#N)c3)cc2[C@H]2[C@H](CCN2C(=O)CC2CC2)[C@H]1CO
AC50 [1]: 3.56 µM (active)

C=C(c1ccc2[nH]c(NC(=O)OC)nc2c1)c1cccs1
IC50 (cells): > 67.6 µM (inactive) | IC50 [6]: 2.72 µM (active)
